In patent US11866450B2, “Modulators of Cystic Fibrosis Transmembrane Conductance regulator, pharmaceutical compositions, methods of treatment, and process for making the modulators” (priority 2018, dated 2024):
pEC50: −log10 of the molar value.

Target: CFTR-mediated chloride transport (Homo sapiens, UniProt P13569)
Assay type: cell-based
Details: enteroid cells incubated with test compound 18-24 hours, acute 10 μM forskolin and 300 nM Compound III; for Max. Activity: % of chloride transport with 3 μM Compound A, 3 μM Compound II and 300 nM acute Compound III triple combination control
In short: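 Human intestinal enteroid cells incubated with compound 18–24 h at 37° C., then membrane potential dye (FLIPR) read 15 min after chloride-free stimulation with 10 μM forskolin, 100 μM IBMX and 300 nM Compound III. AUC expressed as % of triple-combination control (3 μM Compound A, 3 μM Compound II, 300 nM Compound III).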

Chain of CFTR-mediated chloride transport (P13569 whole entry, looked up): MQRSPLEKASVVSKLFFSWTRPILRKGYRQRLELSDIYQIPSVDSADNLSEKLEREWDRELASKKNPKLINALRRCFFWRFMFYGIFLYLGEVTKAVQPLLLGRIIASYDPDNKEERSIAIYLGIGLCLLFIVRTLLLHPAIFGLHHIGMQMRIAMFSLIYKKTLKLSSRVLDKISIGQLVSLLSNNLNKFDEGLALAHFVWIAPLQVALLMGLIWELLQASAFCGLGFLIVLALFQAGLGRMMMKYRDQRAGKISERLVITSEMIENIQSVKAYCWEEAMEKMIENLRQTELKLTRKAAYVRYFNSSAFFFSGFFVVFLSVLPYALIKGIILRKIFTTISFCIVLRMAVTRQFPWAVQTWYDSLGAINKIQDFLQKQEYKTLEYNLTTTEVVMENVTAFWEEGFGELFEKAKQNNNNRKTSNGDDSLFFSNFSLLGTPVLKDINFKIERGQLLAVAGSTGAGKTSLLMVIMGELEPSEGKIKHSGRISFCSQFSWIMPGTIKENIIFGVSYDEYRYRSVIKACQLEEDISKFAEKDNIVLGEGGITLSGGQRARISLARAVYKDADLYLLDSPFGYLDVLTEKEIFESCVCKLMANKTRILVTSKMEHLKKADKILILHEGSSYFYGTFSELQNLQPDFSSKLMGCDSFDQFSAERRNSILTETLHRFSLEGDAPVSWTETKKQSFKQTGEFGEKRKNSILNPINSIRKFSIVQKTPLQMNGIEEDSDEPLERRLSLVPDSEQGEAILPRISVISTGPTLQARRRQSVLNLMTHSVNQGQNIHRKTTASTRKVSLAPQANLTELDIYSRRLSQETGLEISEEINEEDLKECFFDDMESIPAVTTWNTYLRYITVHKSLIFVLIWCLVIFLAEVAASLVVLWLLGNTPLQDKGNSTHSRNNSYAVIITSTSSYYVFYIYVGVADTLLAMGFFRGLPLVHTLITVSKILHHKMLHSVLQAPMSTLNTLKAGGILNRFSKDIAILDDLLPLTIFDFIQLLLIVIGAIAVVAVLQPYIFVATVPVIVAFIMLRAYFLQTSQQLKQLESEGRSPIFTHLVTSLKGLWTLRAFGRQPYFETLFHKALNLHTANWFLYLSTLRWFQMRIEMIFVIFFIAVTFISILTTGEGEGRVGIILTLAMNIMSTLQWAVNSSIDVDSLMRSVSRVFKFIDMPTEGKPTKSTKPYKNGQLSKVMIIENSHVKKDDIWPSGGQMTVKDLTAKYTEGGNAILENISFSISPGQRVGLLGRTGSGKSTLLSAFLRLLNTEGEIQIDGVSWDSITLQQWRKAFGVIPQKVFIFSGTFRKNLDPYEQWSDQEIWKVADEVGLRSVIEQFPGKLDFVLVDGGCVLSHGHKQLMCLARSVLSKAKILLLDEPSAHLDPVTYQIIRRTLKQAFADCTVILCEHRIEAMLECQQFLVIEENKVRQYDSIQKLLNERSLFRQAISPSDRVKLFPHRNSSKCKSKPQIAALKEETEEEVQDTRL

| SMILES | pEC50 | Max. Activity |
| --- | --- | --- |
| CC1(C)C[C@@H]2CN1c1nc(-n3ccc(OCCC4(C(F)(F)F)CC4)n3)ccc1C(=O)NS(=O)(=O)c1ccn(n1)CCO2 (single isomer, unassigned) [Compound 167, 20,20-dimethyl-4-(3-{2-[1-(trifluoromethyl)cyclopropyl]ethoxy}-1H-pyrazol-1-yl)-17-oxa-10λ^6-thia-1,3,9,14,22-pentaazatetracyclo[16.2.1.111,14.02,7]docosa-2(7),3,5,11(22),12-pentaene-8,10,10-trione] | > 6.00 | ++ (++ is 30-60%) |
| CC(C)(C)CCO[C@H]1CCN(c2ccc3c(n2)N2C[C@@H](CCCNc4cccc(n4)S(=O)(=O)NC3=O)CC2(C)C)C1=O (single isomer, unassigned) [Compound 170] | > 6.00 | ++ (++ is 30-60%) |
| CC(C)(C)CCO[C@H]1CCN(c2ccc3c(n2)N2C[C@@H](CCCNc4cccc(n4)S(=O)(=O)NC3=O)CC2(C)C)C1=O (single isomer, unassigned) [Compound 171] | > 6.00 | +++ (+++ is >60%) |
| CC1(C)C[C@@H]2CCCNc3cccc(n3)S(=O)(=O)NC(=O)c3ccc(N4CC[C@H](OCCC5(C(F)(F)F)CC5)C4=O)nc3N1C2 (single isomer, unassigned) [Compound 172] | > 6.00 | ++ (++ is 30-60%) |
| CC1(C)C[C@@H]2CCCNc3cccc(n3)S(=O)(=O)NC(=O)c3ccc(N4CC[C@H](OCCC5(C(F)(F)F)CC5)C4=O)nc3N1C2 (single isomer, unassigned) [Compound 173] | > 6.00 | +++ (+++ is >60%) |
| CC1(C)C[C@@H]2CCCNc3cccc(n3)S(=O)(=O)NC(=O)c3ccc(N4CC[C@H](CCCC5(C(F)(F)F)CC5)C4=O)nc3N1C2 (single isomer, unassigned) [Compound 174] | > 6.00 | +++ (+++ is >60%) |
| CC1(C)C[C@@H]2CCCNc3cccc(n3)S(=O)(=O)NC(=O)c3ccc(N4CC[C@H](CCCC5(C(F)(F)F)CC5)C4=O)nc3N1C2 (single isomer, unassigned) [Compound 175] | > 6.00 | +++ (+++ is >60%) |
| CC1(C)C[C@@H]2CCCNc3cccc(n3)S(=O)(=O)NC(=O)c3ccc(N4CC[C@H](CCC5C6(CC6)C56CC6)C4=O)nc3N1C2 (single isomer, unassigned) [Compound 177] | > 6.00 | ++ (++ is 30-60%) |
| CC1(C)C[C@@H]2CCCNc3cccc(n3)S(=O)(=O)NC(=O)c3ccc(N4CC[C@H](CCC5C6(CC6)C56CC6)C4=O)nc3N1C2 (single isomer, unassigned) [Compound 178] | > 6.00 | +++ (+++ is >60%) |
| CC1(C)C[C@@H]2CCCNc3cccc(n3)S(=O)(=O)NC(=O)c3ccc(N4CC[C@H](OCCC5C6(CC6)C56CC6)C4=O)nc3N1C2 (single isomer, unassigned) [Compound 179] | > 6.00 | ++ (++ is 30-60%) |
| CC1(C)C[C@@H]2CCCNc3cccc(n3)S(=O)(=O)NC(=O)c3ccc(N4CC[C@H](OCCC5C6(CC6)C56CC6)C4=O)nc3N1C2 (single isomer, unassigned) [Compound 180] | > 6.00 | +++ (+++ is >60%) |
| CC1(C)C[C@H]2CCCn3ccc(n3)S(=O)(=O)NC(=O)c3ccc(N4CC[C@H](CCCC5(C(F)(F)F)CC5)C4=O)nc3N1C2 (single isomer, unassigned) [Compound 181, 20,20-Dimethyl-4-(2-oxo-3-{3-[1-(trifluoromethyl)cyclopropyl]propyl}pyrrolidin-1-yl)-10λ^6-thia-1,3,9,14,22-pentaazatetracyclo[16.2.1.111,14.02,7]docosa-2,4,6,11(22),12-pentaene-8,10,10-trione] | 5.52 to 6.00 | ++ (++ is 30-60%) |
| CC1(C)C[C@H]2CCCn3ccc(n3)S(=O)(=O)NC(=O)c3ccc(N4CC[C@H](CCCC5(C(F)(F)F)CC5)C4=O)nc3N1C2 (single isomer, unassigned) [Compound 182, 20,20-dimethyl-4-(2-oxo-3-{3-[1-(trifluoromethyl)cyclopropyl]propyl}pyrrolidin-1-yl)-10λ^6-thia-1,3,9,14,22-pentaazatetracyclo[16.2.1.111,14.02,7]docosa-2,4,6,11(22),12-pentaene-8,10,10-trione] | > 6.00 | ++ (++ is 30-60%) |
| CC1(C)C[C@H]2CCCn3ccc(n3)S(=O)(=O)NC(=O)c3ccc(N4CC[C@H](OCCC5(C(F)(F)F)CC5)C4=O)nc3N1C2 (single isomer, unassigned) [Compound 191, 20,20-Dimethyl-4-(2-oxo-3-{2-[1-(trifluoromethyl)cyclopropyl]ethoxy}pyrrolidin-1-yl)-10λ^6-thia-1,3,9,14,22-pentaazatetracyclo[16.2.1.111,14.02,7]docosa-2,4,6,11(22),12-pentaene-8,10,10-trione] | > 6.00 | ++ (++ is 30-60%) |
| CC1(C)C[C@H]2CCCn3ccc(n3)S(=O)(=O)NC(=O)c3ccc(N4CC[C@H](OCCC5(C(F)(F)F)CC5)C4=O)nc3N1C2 (single isomer, unassigned) [Compound 192, 20,20-dimethyl-4-(2-oxo-3-{2-[1-(trifluoromethyl)cyclopropyl]ethoxy}pyrrolidin-1-yl)-10λ^6-thia-1,3,9,14,22-pentaazatetracyclo[16.2.1.111,14.02,7]docosa-2,4,6,11(22),12-pentaene-8,10,10-trione] | > 6.00 | +++ (+++ is >60%) |
| CC1(C)C[C@@H]2CN1c1nc(-n3ccc(OCCC4C5(CC5)C45CC5)n3)ccc1C(=O)NS(=O)(=O)c1cccc(n1)NCCO2 (single isomer, unassigned) [Compound 196, 8-[3-(2-{dispiro[2.0.2.1]heptan-7-yl}ethoxy)-1H-pyrazol-1-yl]-12,12-dimethyl-15-oxa-2λ^6-thia-3,9,11,18,23-pentaazatetracyclo[17.3.1.111,14.05,10]tetracosa-1(23),5(10),6,8,19,21-hexaene-2,2,4-trione] | 5.52 to 6.00 | ++ (++ is 30-60%) |
| CC1(C)C[C@@H]2CN1c1nc(-n3ccc(OCCC4C5(CC5)C45CC5)n3)ccc1C(=O)NS(=O)(=O)c1cccc(n1)NCCO2 (single isomer, unassigned) [Compound 197, 8-[3-(2-{dispiro[2.0.2.1]heptan-7-yl}ethoxy)-1H-pyrazol-1-yl]-12,12-dimethyl-15-oxa-2λ^6-thia-3,9,11,18,23-pentaazatetracyclo[17.3.1.111,14.05,10]tetracosa-1(23),5(10),6,8,19,21-hexaene-2,2,4-trione] | > 6.00 | +++ (+++ is >60%) |
| Cc1cn2nc1S(=O)(=O)NC(=O)c1ccc(-n3ccc(OCCC(C4CC4)C4CC4)n3)nc1N1C[C@H](CCC2)CC1(C)C (single isomer, unassigned) [Compound 201, 4-[3-(3,3-Dicyclopropylpropoxy)-1H-pyrazol-1-yl]-12,20,20-trimethyl-10λ^6-thia-1,3,9,14,22-pentaazatetracyclo[16.2.1.111,14.02,7]docosa-2(7),3,5,11(22),12-pentaene-8,10,10-trione] | < 5.52 | + (+ is <30%) |
| Cc1cn2nc1S(=O)(=O)NC(=O)c1ccc(-n3ccc(OCCC(C4CC4)C4CC4)n3)nc1N1C[C@H](CCC2)CC1(C)C (single isomer, unassigned) [Compound 202, 4-[3-(3,3-dicyclopropylpropoxy)-1H-pyrazol-1-yl]-12,20,20-trimethyl-10λ^6-thia-1,3,9,14,22-pentaazatetracyclo[16.2.1.111,14.02,7]docosa-2(7),3,5,11(22),12-pentaene-8,10,10-trione] | > 6.00 | ++ (++ is 30-60%) |
| CN1CCC[C@H]2CN(c3nc(-n4ccc(OCCC(C5CC5)C5CC5)n4)ccc3C(=O)NS(=O)(=O)c3cccc1n3)C(C)(C)C2 (single isomer, unassigned) [Compound 203, 8-[3-(3,3-Dicyclopropylpropoxy)-1H-pyrazol-1-yl]-12,12,18-trimethyl-2λ^6-thia-3,9,11,18,23-pentaazatetracyclo[17.3.1.111,14.05,10]tetracosa-1(22),5,7,9,19(23),20-hexaene-2,2,4-trione] | > 6.00 | +++ (+++ is >60%) |
| CN1CCC[C@H]2CN(c3nc(-n4ccc(OCCC(C5CC5)C5CC5)n4)ccc3C(=O)NS(=O)(=O)c3cccc1n3)C(C)(C)C2 (single isomer, unassigned) [Compound 204, 8-[3-(3,3-dicyclopropylpropoxy)-1H-pyrazol-1-yl]-12,12,18-trimethyl-2λ^6-thia-3,9,11,18,23-pentaazatetracyclo[17.3.1.111,14.05,10]tetracosa-1(22),5,7,9,19(23),20-hexaene-2,2,4-trione] | < 5.52 | + (+ is <30%) |
| CC1(C)C[C@H]2CCCn3ccc(n3)S(=O)(=O)NC(=O)c3ccc(-n4ccc(OCCC5C(C)(C)C5(C)C)n4)nc3N1C2 (single isomer, unassigned) [Compound 206, 20,20-dimethyl-4-{3-[2-(2,2,3,3-tetramethylcyclopropyl)ethoxy]-1H-pyrazol-1-yl}-10λ^6-thia-1,3,9,14,22-pentaazatetracyclo[16.2.1.111,14.02,7]docosa-2(7),3,5,11(22),12-pentaene-8,10,10-trione] | > 6.00 | + (+ is <30%) |
| CC1(C)C[C@H]2CCCn3ccc(n3)S(=O)(=O)NC(=O)c3ccc(-n4ccc(OCCC5C(C)(C)C5(C)C)n4)nc3N1C2 (single isomer, unassigned) [Compound 207, 20,20-dimethyl-4-{3-[2-(2,2,3,3-tetramethylcyclopropyl)ethoxy]-1H-pyrazol-1-yl}-10λ^6-thia-1,3,9,14,22-pentaazatetracyclo[16.2.1.111,14.02,7]docosa-2(7),3,5,11(22),12-pentaene-8,10,10-trione] | > 6.00 | +++ (+++ is >60%) |
